Measured values from publication PMC5617230, “The single cyclic nucleotide-specific phosphodiesterase of the intestinal parasite Giardia lamblia represents a potential drug target” (PLoS Neglected Tropical Diseases, 2017).
Structures can show the parent of a compound that is named as a salt. Where two headings read alike, the source gives them in different places.

Assays:
[1] = tested on: G. lamblia WBC6 trophozoites; test: G. lamblia trophozoite proliferation assay (resazurin); type: cell-based, Giardia lamblia; details: for EC50: G. lamblia WBC6 trophozoites, 72 h anaerobic culture, read-out: Giardia cells EC50; for Effect on Giardia trophozoite proliferation: 50 μM inhibitor, 72 h culture, Fig 3B
Description: G. lamblia WBC6 (ATCC catalogue number 50803) trophozoites were grown under microaerophilic conditions in 11 ml culture tubes (Nunc, cat. 156758) containing TYI-S- 33 medium supplemented with 10% bovine serum and bovine bile according to standard protocols. Parasites were harvested by chilling the tubes on ice for 30 minutes to detach adherent cells and collected by centrifugation (900 x g, 10 minutes, 4°C). Encystation was induced using the two-step method as described previously by cultivating the trophozoites in bile-free medium for 44 hours and thereafter in medium (pH 7.85) containing porcine bile.
Test compounds were dissolved in DMSO and serially diluted in Giardia culture medium. G. lamblia WBC6 trophozoites were grown until adherent cells reached a confluency close to 100%. Cells were then chilled on ice for 20 min and adherent parasites were detached from the culture tube. Cultures were diluted to 5x10^3 cells/ml in growth medium (room temperature) and 100 μl aliquots were immediately added to wells of 96-well plates preloaded with the same volume of test compound dilutions. DMSO (solvent) controls were always included. Plates were incubated for 72 h at 37°C in a humid chamber with an anaerobic atmosphere. Adherent cells were then washed twice with 200 μl PBS before adding 200 μl of PBS containing […] resazurin and 1% glucose. After incubation for 4 h at 37°C, plates were read on a fluorescence plate reader (Wallac 1420 VICTOR^2, PerkinElmer) with excitation and emission wavelengths of 544 nm and 590 nm, respectively. Data were analyzed with the GraphPad Prism software package using a sigmoidal dose-response model for regression. All assays were done in quadruplicate and at least three independent experiments were performed.

[2] = biological target: recombinant GlPDE(aa588-1371) (Giardia intestinalis, UniProt A0A644EZ75); test: biochemical; type: biochemical; details: for Activity against recombinant GlPDE in profiling assay: inhibitor at 100 μM, Fig 3A
Source text: The DNA sequence comprising the catalytic domain (residues Gly-983 –Glu-1371) was amplified by PCR using genomic DNA of G. lamblia WBC6 and the primer pair GlPDE1cat-for (5'-[…]-3') and GlPDE1cat-rev (5'-[…]-3'). The PCR product was then cloned into the TA vector pCRII-TOPO (Invitrogen) yielding plasmid pCR-GlPDE1cat. To get a plasmid containing the sequence coding for the full length protein lacking the N-terminal transmembrane helices (Met-588 –Glu-1371) of GlPDE, a further PCR product was produced using the primer pair GlPDE1-Mfor (5'-[…]-3') and GlPDE1-LMrev (5'-[…]-3') and was cloned via NdeI (bold) and BsrGI into pCR-GlPDE1cat resulting in plasmid pCR-GlPDE1M. The inserts of both plasmid constructs were verified by sequencing and subcloned into two variants of the yeast expression vector pLT1 [42] using the restriction enzymes SalI (italic)/EcoRV or NdeI (bold)/EcoRV. The EcoRV cloning site originated from the multiple cloning site of the pCRII-TOPO vector. One pLT1 variant directs the expression of the Giardia protein alone, whereas the other adds an N-terminal hemagglutinin (HA) tag to allow detection of the recombinant protein. Transformation of the constructs into the PDE-deficient S. cerevisiae strain PP5 (MATa leu2-3 leu2- 112 ura3-52 his3-532 his4 cam pde1::URA3 pde2::HIS3) was carried out as described previously.
Yeast cell pellets were created exactly as described previously. Briefly, yeast was grown at 30°C in SC-leu medium to end log phase and thereafter again for 3.5 h in YPD to maximize protein expression. Washed cells were frozen in liquid nitrogen and stored at -70°C. Frozen cell pellets were thawed on ice and resuspended in an equal volume of ice-cold extraction buffer (50 mM HEPES, pH 7.5, 100 mM NaCl, 1x Complete protease inhibitor cocktail without EDTA (Roche Applied Science)). Cell lysates were produced by three passages through a high pressure homogenizer (French press at 20’000 psi, 4°C). Unbroken cells and cell debris were removed by centrifugation for 20 min at 16’000 RCF at 4°C. 25% glycerol was added to the cleared supernatant. Aliquots were snap-frozen in liquid nitrogen and stored at -70°C for subsequent PDE activity assays.
PDE activity was determined by a modification of the two-step procedure of Thompson and Appleman as described previously. In all reactions no more than 20% of the substrate was hydrolyzed. […] Inhibitors were dissolved and diluted in dimethyl sulfoxide (DMSO), with 1% final DMSO concentration in the reaction mixes. Control reactions with DMSO alone were always included. Data were analyzed using the GraphPad Prism software package (GraphPad, San Diego).

TbrPDEB1 and TbrPDEB2 = tested on: TbrPDEB1 and TbrPDEB2; parameters: method as in PMID 22291195, PMID 22963052; details: cited from earlier work

IC50 ([2]; read-out: Giardia PDE IC50) | Structure (SMILES) | EC50 ([1]; Giardia duodenalis) | IC50 [2] | also measured
> 100 µM | C[C@H](Cc1nc2c(cnn2-c2ccccc2Cl)c(=O)[nH]1)C(F)(F)F [BAY 73–6691] |  |  | EC50 [1]: > 50 µM
 | COc1ccc(Cc2nn3c([C@@H](CCCc4ccccc4)[C@@H](C)O)nc(C)c3c(=O)[nH]2)cc1OC [BAY 60–7550] |  |  | EC50 [1]: ~50 µM
~100 µM | CCOC(=O)c1cnc2c(cnn2CC)c1NN=C(C)C [Etazolate, etatolate] | > 50 µM |  | 
 | O=C(Nc1c(Cl)cncc1Cl)c1ccc(OC(F)F)c(OCC2CC2)c1 [Roflumilast, roflumilast] | 7.4 µM | 6 µM | Effect on Giardia trophozoite proliferation [1]: also inhibited Giardia trophozoite proliferation; Activity against recombinant GlPDE in profiling assay [2]: showed promising activity against GlPDE
> 100 µM | CN(C(=O)CCCOc1ccc2[nH]c(=O)ccc2c1)C1CCCCC1 [Cilostamide, cilostamide] | > 50 µM |  | 
> 100 µM | CN1CC(=O)N2[C@H](c3ccc4c(c3)OCO4)c3[nH]c4ccccc4c3C[C@@H]2C1=O [Tadalafil, tadalafil] | > 50 µM |  | 
 | Cc1[nH]c(=O)c(C#N)cc1-c1ccncc1 [Milrinone, milrinone] | > 50 µM | > 100 µM | 
 | COc1cc(-c2ccc(=O)[nH]n2)ccc1OC(F)F [Zardaverine, zardaverine] | > 50 µM | > 100 µM | 
> 100 µM | Cc1ccc([N+](=O)[O-])cc1S(=O)(=O)N(C)C [BRL 50481] |  |  | 
~100 µM | COc1cc2ncnc(N3CC[C@@H](Oc4cnc5ccccc5n4)C3)c2cc1OC [NEU28] |  |  | EC50 [1]: 30.6 µM
 | Nc1nc2c(ncn2[C@@H]2O[C@@H]3COP(=O)(O)O[C@H]3[C@H]2O)c(=O)[nH]1 [cGMP] |  |  | Acceptance as substrate by GlPDE ([2]; recombinant GlPDE(aa588-1371)): does not accept cGMP as a substrate
 | OCCN(CCO)c1nc(N2CCCCC2)c2nc(N(CCO)CCO)nc(N3CCCCC3)c2n1 [Dipyridamole, dipyridamole] | > 50 µM | 26.3 µM | Activity against recombinant GlPDE in profiling assay [2]: showed promising activity against GlPDE
 | COc1cc2c(cc1OC)-c1c/c(=N\c3c(C)cc(C)cc3C)n(C)c(=O)n1CC2 [Trequinsin, trequinsin] | > 50 µM | > 100 µM | 
 | CC(=O)CCCCn1c(=O)c2c(ncn2C)n(C)c1=O [Pentoxifylline, pentoxifylline] | > 50 µM |  | 
> 100 µM | CC(C)Cn1c(=O)n(C)c(=O)c2[nH]cnc21 [IBMX, isobutyl-methyl-xanthine] | > 50 µM |  | 
> 100 µM | COCc1nc2c([nH]1)c(=O)n(C)c(=O)n2CC(C)C [8'-MM-IBMX, 8-methoxymethyl-IBMX] |  |  | EC50 [1]: > 50 µM
 | CCCc1nn(C)c2c(=O)[nH]c(-c3cc(S(=O)(=O)N4CCN(C)CC4)ccc3OCC)nc12 [Sildenafil, sildenafil citrate] | > 50 µM | > 100 µM | 
> 100 µM | COc1ccc(C2CNC(=O)C2)cc1OC1CCCC1 (stereo not drawn) [Rolipram, rolipram] | > 50 µM |  | 
 | CCOC(=O)C1=C[C@]2(CC)CCCN3CCc4c(n1c1ccccc41)[C@@H]32 [Vinpocetine, vinpocetine] | 16.3 µM | > 100 µM | 
 | COc1ccc(Cc2nccc3cc(OC)c(OC)cc23)cc1OC [Papaverine, papaverine] | > 50 µM | > 100 µM | 
> 100 µM | CCCOc1ccccc1-c1nc2nn[nH]c2c(=O)[nH]1 [Zaprinast, zaprinast] | > 50 µM |  | 
0.8 µM | COc1ccc(C2=NN(C3CCCCCC3)C(=O)[C@@H]3CC=CC[C@H]23)cc1OCCCCOc1ccc(-c2nn[nH]n2)cc1 [NPD-001] |  |  | Potency against trypanosomal PDEs (TbrPDEB1 and TbrPDEB2): potencies in the nanomolar range; Effect on Giardia trophozoite proliferation [1]: also inhibited Giardia trophozoite proliferation; EC50 [1]: 6.9 µM; Activity against recombinant GlPDE in profiling assay [2]: showed promising activity against GlPDE
 | COc1ccc(C(=O)Nc2c(Cl)cncc2Cl)cc1OC1CCCC1 [Piclamilast, piclamilast] | 12 µM | 11.3 µM | Effect on Giardia trophozoite proliferation [1]: also inhibited Giardia trophozoite proliferation; Activity against recombinant GlPDE in profiling assay [2]: showed promising activity against GlPDE

Structure (SMILES) | IC50 ([2]; read-out: Giardia PDE IC50) | EC50 ([1]; Giardia duodenalis) | IC50 [2] | also measured
CCCCCC[C@@H]([C@@H](C)O)n1cnc2c(N)ncnc21 (racemic) [EHNA, erythro-9-(2-hydroxy-3-nonyl)adenine] | > 100 µM |  |  | EC50 [1]: > 50 µM
CCCCOc1cc(CC2CNC(=O)N2)ccc1OC (stereo not drawn) [Ro20-1724] | > 100 µM |  |  | EC50 [1]: > 50 µM
